{"source": "patent US20260000642A1", "about": "(Tay Therapeutics Limited, priority 2022, published 2026)", "system": "collagen-induced arthritis in Lewis rats", "experiment": "Collagen-induced arthritis (CIA) model in rats: body weight, paw volume, clinical scores, clinical observations", "key": {"[1]": {"settings": "Group 5 (CIA + Example 101 3 mg/kg), Day 13, individual animals, 3 mg/kg"}, "[2]": {"settings": "Group 5 (CIA + Example 101 3 mg/kg), Day 16, individual animals, 3 mg/kg"}, "[3]": {"settings": "Group 5 (CIA + Example 101 3 mg/kg), Day 17, individual animals, 3 mg/kg"}, "[4]": {"settings": "Group 5 (CIA + Example 101 3 mg/kg), Day 20, individual animals, 3 mg/kg"}, "[5]": {"settings": "Group 6 (CIA + Example 101 10 mg/kg), Day 2, individual animals, 10 mg/kg"}, "[6]": {"settings": "Group 6 (CIA + Example 101 10 mg/kg), Day 5, individual animals, 10 mg/kg"}, "[7]": {"settings": "Group 6 (CIA + Example 101 10 mg/kg), Day 6, individual animals, 10 mg/kg"}, "[8]": {"settings": "Group 6 (CIA + Example 101 10 mg/kg), Day 7, individual animals, 10 mg/kg"}, "[9]": {"settings": "Group 6 (CIA + Example 101 10 mg/kg), Day 13, individual animals, 10 mg/kg"}, "[10]": {"settings": "Group 6 (CIA + Example 101 10 mg/kg), Day 15, individual animals, 10 mg/kg"}, "[11]": {"settings": "Group 6 (CIA + Example 101 10 mg/kg), Day 18, individual animals, 10 mg/kg"}, "[12]": {"settings": "Group 6 (CIA + Example 101 10 mg/kg), Day 19, individual animals, 10 mg/kg"}, "[13]": {"settings": "Group 6 (CIA + Example 101 10 mg/kg), Day 20, individual animals, 10 mg/kg"}, "[14]": {"settings": "Group 7 (CIA + Example 101 30 mg/kg), Day 1, individual animals, 30 mg/kg"}, "[15]": {"settings": "Group 7 (CIA + Example 101 30 mg/kg), Day 9, individual animals, 30 mg/kg"}, "[16]": {"settings": "Group 7 (CIA + Example 101 30 mg/kg), Day 11, individual animals, 30 mg/kg"}, "[17]": {"settings": "Group 7 (CIA + Example 101 30 mg/kg), Day 12, individual animals, 30 mg/kg"}, "[18]": {"settings": "Group 7 (CIA + Example 101 30 mg/kg), Day 13, individual animals, 30 mg/kg"}, "[19]": {"settings": "Group 7 (CIA + Example 101 30 mg/kg), Day 15, individual animals, 30 mg/kg"}, "[20]": {"settings": "Group 7 (CIA + Example 101 30 mg/kg), Day 17, individual animals, 30 mg/kg"}, "[21]": {"settings": "Group 7 (CIA + Example 101 30 mg/kg), Day 20, individual animals, 30 mg/kg"}, "[22]": {"settings": "Group 7 (CIA + Example 101 30 mg/kg), Day 21, individual animals, 30 mg/kg"}}, "note": "“And” between values parts separate entries of the source, which are not always exact repeats. Equal values may be shown once.", "data": [{"smiles": "CNC(=O)c1[nH]c(C(=O)NC2CCC2)cc1O[C@@H](C)c1ccccc1", "note": "[Example 101, N^5-cyclobutyl-N^2-methyl-3-(1-phenylethoxy)-1H-pyrrole-2,5-dicarboxamide]", "values": [{"measurement": "Animal body weight", "setting": "[1]", "result": 180, "unit": "g"}, {"measurement": "Animal body weight percent change", "setting": "[1]", "result": 9.70, "unit": "%"}, {"measurement": "Animal body weight", "setting": "Group 5 (CIA + Example 101 3 mg/kg), Day 14, individual animals, 3 mg/kg", "result": 180, "unit": "g"}, {"measurement": "Animal body weight", "setting": "[2]", "result": "150 g and 170 g"}, {"measurement": "Animal body weight percent change", "setting": "[2]", "result": 0.58, "unit": "%"}, {"measurement": "Animal body weight", "setting": "[3]", "result": 170, "unit": "g"}, {"measurement": "Animal body weight percent change", "setting": "[3]", "result": "−4.40", "unit": "%"}, {"measurement": "Animal body weight percent change", "setting": "Group 5 (CIA + Example 101 3 mg/kg), Day 18, individual animals, 3 mg/kg", "result": "−4.40% and 0.00%"}, {"measurement": "Animal body weight", "setting": "Group 5 (CIA + Example 101 3 mg/kg), Day 19, individual animals, 3 mg/kg", "result": "150 g and 170 g"}, {"measurement": "Animal body weight", "setting": "[4]", "result": "160 g and 170 g"}, {"measurement": "Animal body weight percent change", "setting": "[4]", "result": "−4.40% and 0.60%"}, {"measurement": "Animal body weight percent change", "setting": "Group 5 (CIA + Example 101 3 mg/kg), Day 21, individual animals, 3 mg/kg", "result": 0.60, "unit": "%"}, {"measurement": "Animal body weight percent change", "setting": "Group 6 (CIA + Example 101 10 mg/kg), Day 0, individual animals", "result": 0.00, "unit": "%"}, {"measurement": "Animal body weight", "setting": "Group 6 (CIA + Example 101 10 mg/kg), Day 0, individual animals, 10 mg/kg", "result": "170 g and 160 g"}, {"measurement": "Animal body weight percent change", "setting": "Group 6 (CIA + Example 101 10 mg/kg), Day 1, individual animals, 10 mg/kg", "result": "0.00% and 0.64% and 5.00%"}, {"measurement": "Animal body weight", "setting": "[5]", "result": 160, "unit": "g"}, {"measurement": "Animal body weight percent change", "setting": "[5]", "result": 0.62, "unit": "%"}, {"measurement": "Animal body weight percent change", "setting": "Group 6 (CIA + Example 101 10 mg/kg), Day 3, individual animals, 10 mg/kg", "result": 0.59, "unit": "%"}, {"measurement": "Animal body weight percent change", "setting": "Group 6 (CIA + Example 101 10 mg/kg), Day 4, individual animals, 10 mg/kg", "result": "0.58% and 0.59% and 3.70% and −0.61% and 7.50%"}, {"measurement": "Animal body weight", "setting": "[6]", "result": "170 g and 160 g"}, {"measurement": "Animal body weight percent change", "setting": "[6]", "result": "−0.62", "unit": "%"}, {"measurement": "Animal body weight", "setting": "[7]", "result": 170, "unit": "g"}, {"measurement": "Animal body weight percent change", "setting": "[7]", "result": "−1.76% and 10.00%"}, {"measurement": "Animal body weight", "setting": "[8]", "result": 180, "unit": "g"}, {"measurement": "Animal body weight percent change", "setting": "[8]", "result": "−0.61", "unit": "%"}, {"measurement": "Animal body weight", "setting": "Group 6 (CIA + Example 101 10 mg/kg), Day 8, individual animals, 10 mg/kg", "result": 180, "unit": "g"}, {"measurement": "Animal body weight percent change", "setting": "Group 6 (CIA + Example 101 10 mg/kg), Day 9, individual animals, 10 mg/kg", "result": 3.70, "unit": "%"}, {"measurement": "Animal body weight percent change", "setting": "Group 6 (CIA + Example 101 10 mg/kg), Day 10, individual animals, 10 mg/kg", "result": 0.00, "unit": "%"}, {"measurement": "Animal body weight percent change", "setting": "Group 6 (CIA + Example 101 10 mg/kg), Day 11, individual animals, 10 mg/kg", "result": "−0.59% and 0.62%"}, {"measurement": "Animal body weight", "setting": "[9]", "result": "150 g and 160 g"}, {"measurement": "Animal body weight percent change", "setting": "[9]", "result": "0.62% and −0.62%"}, {"measurement": "Animal body weight", "setting": "[10]", "result": 170, "unit": "g"}, {"measurement": "Animal body weight percent change", "setting": "[10]", "result": "−0.62", "unit": "%"}, {"measurement": "Animal body weight percent change", "setting": "Group 6 (CIA + Example 101 10 mg/kg), Day 16, individual animals, 10 mg/kg", "result": "0.00% and −0.62%"}, {"measurement": "Animal body weight percent change", "setting": "Group 6 (CIA + Example 101 10 mg/kg), Day 17, individual animals, 10 mg/kg", "result": "0.62% and 20.00%"}, {"measurement": "Animal body weight", "setting": "[11]", "result": 160, "unit": "g"}, {"measurement": "Animal body weight percent change", "setting": "[11]", "result": 0.00, "unit": "%"}, {"measurement": "Animal body weight", "setting": "[12]", "result": "170 g and 160 g (2×)"}, {"measurement": "Animal body weight percent change", "setting": "[12]", "result": "−0.58", "unit": "%"}, {"measurement": "Animal body weight", "setting": "[13]", "result": 170, "unit": "g"}, {"measurement": "Animal body weight percent change", "setting": "[13]", "result": "−0.62% and −0.61%"}, {"measurement": "Animal body weight percent change", "setting": "Group 6 (CIA + Example 101 10 mg/kg), Day 21, individual animals, 10 mg/kg", "result": "−0.62", "unit": "%"}, {"measurement": "Animal body weight percent change", "setting": "Group 7 (CIA + Example 101 30 mg/kg), Day 0, individual animals", "result": 0.00, "unit": "%"}, {"measurement": "Animal body weight", "setting": "[14]", "result": "160 g and 170 g"}, {"measurement": "Animal body weight percent change", "setting": "[14]", "result": "−0.61% and 1.20%"}, {"measurement": "Animal body weight", "setting": "Group 7 (CIA + Example 101 30 mg/kg), Day 2, individual animals, 30 mg/kg", "result": 170, "unit": "g"}, {"measurement": "Animal body weight", "setting": "Group 7 (CIA + Example 101 30 mg/kg), Day 3, individual animals, 30 mg/kg", "result": 160, "unit": "g"}, {"measurement": "Animal body weight", "setting": "Group 7 (CIA + Example 101 30 mg/kg), Day 4, individual animals, 30 mg/kg", "result": 160, "unit": "g"}, {"measurement": "Animal body weight percent change", "setting": "Group 7 (CIA + Example 101 30 mg/kg), Day 5, individual animals, 30 mg/kg", "result": "0.00% and 0.61%"}, {"measurement": "Animal body weight percent change", "setting": "Group 7 (CIA + Example 101 30 mg/kg), Day 7, individual animals, 30 mg/kg", "result": 0.61, "unit": "%"}, {"measurement": "Animal body weight percent change", "setting": "Group 7 (CIA + Example 101 30 mg/kg), Day 8, individual animals, 30 mg/kg", "result": "7.10% and −0.61% (2×) and −0.60%"}, {"measurement": "Animal body weight", "setting": "[15]", "result": 170, "unit": "g"}, {"measurement": "Animal body weight percent change", "setting": "[15]", "result": "−0.58", "unit": "%"}, {"measurement": "Animal body weight percent change", "setting": "Group 7 (CIA + Example 101 30 mg/kg), Day 10, individual animals, 30 mg/kg", "result": "−0.58% and 0.00% (2×)"}, {"measurement": "Animal body weight", "setting": "[16]", "result": 170, "unit": "g"}, {"measurement": "Animal body weight percent change", "setting": "[16]", "result": 0.61, "unit": "%"}, {"measurement": "Animal body weight", "setting": "[17]", "result": "170 g and 160 g"}, {"measurement": "Animal body weight percent change", "setting": "[17]", "result": 1.20, "unit": "%"}, {"measurement": "Animal body weight", "setting": "[18]", "result": "170 g and 160 g"}, {"measurement": "Animal body weight percent change", "setting": "[18]", "result": "−0.61% and 1.30%"}, {"measurement": "Animal body weight percent change", "setting": "Group 7 (CIA + Example 101 30 mg/kg), Day 14, individual animals, 30 mg/kg", "result": 2.60, "unit": "%"}, {"measurement": "Animal body weight", "setting": "[19]", "result": "170 g and 160 g"}, {"measurement": "Animal body weight percent change", "setting": "[19]", "result": "0.00% (2×) and 3.90%"}, {"measurement": "Animal body weight percent change", "setting": "Group 7 (CIA + Example 101 30 mg/kg), Day 16, individual animals, 30 mg/kg", "result": 0.65, "unit": "%"}, {"measurement": "Animal body weight", "setting": "[20]", "result": 170, "unit": "g"}, {"measurement": "Animal body weight percent change", "setting": "[20]", "result": 1.30, "unit": "%"}, {"measurement": "Animal body weight percent change", "setting": "Group 7 (CIA + Example 101 30 mg/kg), Day 18, individual animals, 30 mg/kg", "result": "−0.58% and −1.30%"}, {"measurement": "Animal body weight percent change", "setting": "Group 7 (CIA + Example 101 30 mg/kg), Day 19, individual animals, 30 mg/kg", "result": "−1.20", "unit": "%"}, {"measurement": "Animal body weight", "setting": "[21]", "result": 160, "unit": "g"}, {"measurement": "Animal body weight percent change", "setting": "[21]", "result": 6.10, "unit": "%"}, {"measurement": "Animal body weight", "setting": "[22]", "result": 150, "unit": "g"}, {"measurement": "Animal body weight percent change", "setting": "[22]", "result": "6.10% and −2.60%"}]}]}
